In US20020018768A1, “Control of gene expression” (YISSUM RESEARCH DEVELOPMENT COMPANY OF THE HEBREW …, priority 1999, published 2002):

System: CFTR transcripts carrying the 3849+10 kb C→T mutation in 091398K cells
Assay: Splicing of native CFTR transcripts in 091398K nasal polyp epithelial cell line after transient transfection with splicing factors (DAC-30)
Type: cell-based
Settings: transfection efficiency ~60%, untreated 21%
Description: A polyp sample from a CF patient, compound heterozygous for the splicing mutation 3849+10 kb C→T and the W 1282X mutations was obtained. This patient suffered from nasal polyps and underwent nasal polypectomy. An epithelial cell line (091398K) was established from the polyp sample in collaboration with Dr. J. Yankaskas from the University of North Carolina. […] Thus a system in which the effect of splicing factors or) a native CFTR gene could be studied, was established.
Transient transfections of 091398 k cells with cellular factors were performed, using DAC-30. […] The viral factor E4-oRF3 slightly promoted exon inclusion and led to an increase in, the level of aberrantly spliced transcripts (21% to 28%). Thus, the mean effect could have reached ˜35%.

Substance: ASF/SF2: cellular SR protein splicing factor, overexpressed by transient transfection
- level of aberrantly spliced CFTR transcripts after overexpression: 11%
